For series [1] the following is noted: previous reports (Hibicke 2020; Yang 2013; Tizabi 2012); cited from earlier work.
Series [2] can be described thus: Mouse fear extinction paradigm (PTSD model). Particulars: 5 mg/kg IP, day 2. It counts as in vivo. From the text: (FIG. 9A) Schematic of experimental design. A single CS-US (tone-shock) pairing on day 1 was followed by 6 CS presentations in a novel context (context B). […] On day 3, the time spent freezing to the CS was quantified. […] (FIG. 9C) No locomotor changes were observed on day 3 (t(26)=1.073, p>0.05). Data are mcan+/−SEM.
FIGS. 10A-10B: MBDB improves fear extinction in a PTSD mouse model. A single CS-US (tone-shock) pairing on day 1 was followed by 6 conditioned stimulus (CS) presentations in a novel context (context B). MBDB or saline vehicle was injected 30 min prior to extinction training on day 2. The time spent freezing to the CS was quantified on day 2. […] Data are mean+/−SEM. N=10 for MBDB group (5 mg/kg, IP) and N=16 for saline control group. **p<0.01 vs. vehicle control group.
Effective PTSD treatments facilitate the disassociation between a traumatic memory and the patient's fear response, making cues for the traumatic memory evoke less of a fear response. This is modeled in the mouse fear extinction paradigm (see FIG. 9A) which takes place over 3 days. […] On day 3 (extinction recall), the mice are “asked” if that tone (CS) still elicits a fearful response, as measured by the time spent freezing when the tone is presented. […]

Series [3] relates to 5-HT/5-HIAA uptake sites. Particulars: (±)-MBDB·HCl 25 mg/kg IP every 12 hours for 4 days; cited from earlier work.
A short description of series [4]: Open field test (OFT). In kind it is in vivo, rat. As to conditions: 0.5-30 mg/kg IP, 30 minutes before 30-min test. The procedure:
Method: Consecutive beam breaks and/or video-tracking of time spent in the center versus periphery of the open field are measured. Also measured are parameters such as distance traveled and ambulatory activity (horizontal and vertical) for the duration of the test session.
The open field test (OFT) capitalizes on a rodent's innate fear of open spaces to assess anxiety-like behavior. More time spent in the center of an open field reflects an anxiolytic (anti-anxiety) effect.
Locomotor activity was also measured in the OFT.
To investigate whether MBDB has an anti-anxiety (anxiolytic) effect, rats were dosed with MBDB (0.5-30 mg/kg, IP) or vehicle (saline) and 30-minutes later were tested in the open field for 30 minutes. This anxiety test capitalizes on a rodents' innate fear of wide-open spaces and propensity to hug the walls when placed into the open field. Therefore, a drug that increases the time spent in the center of the open field has anxiolytic activity and predicts utility for treating anxiety in humans.

The nature of series [5]: Rat Forced Swim Test (FST). In kind it is in vivo. From the text:
The Forced Swim Test (FST) is a classic, and the most used preclinical behavioral assay to screen compounds with antidepressant-like activity and has high predictive and face validity (Porsolt et al. (1977) Nature 266:730; Borsini and Meli (1988) Psychopharmacology 94:147). The premise of the FST is that when rats are placed into a cylinder filled with water, they will initially try to escape, but over time will become immobile. This increased immobility reflects behavioral despair, modeling a depressive-like state.
Forced Swim Test (EST): In the FST trial, rats were placed in a circular plexiglass container filled with water, with no means of escape. Water temperature was maintained at 22-25° C. and changed for every animal. After an acclimation period, rats were timed for inactivity (failure to struggle), activity, swim time and climbing time. Day 1 consisted of a 15 min acclimation trial, and Day 2 (24 h later) consisted of the 5 min test. A time sampling procedure was employed where animals were observed every 5 sec and scored for immobility, swimming, or climbing. Fluoxetine (10 mg/kg, IP, Sigma Aldrich) or 0.9% sterile saline vehicle (vehicle 3× group) were administered 23.5, 5, and 1 h before testing in the FST. […] The experimenter was blinded to treatment.
Forced Swim Test: In the FST trial, rats were placed in a circular plexiglass container filled with water, with no means of escape. Water temperature was maintained at 22-25° C. and changed for every animal. After an acclimation period, rats were timed for inactivity (failure to struggle), activity, swim time and climbing time. Day 1 consisted of a 15 min acclimation trial, and Day 2 (24 h later) consisted of the 5 min test. A time sampling procedure was employed where animals were observed every 5 sec and scored for immobility, swimming, or climbing. Fluoxetine (10 mg/kg, IP, Sigma Aldrich) or 0.9% sterile saline vehicle (vehicle 3× group) were administered 23.5, 5, and 1 h before testing in the FST. 2C-B (2.5, 10, or 20 mg/kg, IP, Cayman Chemical) or 0.9% saline vehicle (vehicle 1× group) were administered 30 min prior to FST testing. The experimenter was blinded to treatment.
Drug Treatment: Fluoxetine (10 mg/kg, IP, Sigma Aldrich) or 0.9% sterile saline vehicle were administered 23.5, 5, and 1 h before testing in the FST. […] Control animals received fluoxetine alone, methylone alone, or saline vehicle.
Forced Swim Test: In the FST trial, rats were placed in a circular plexiglass container filled with water, with no means of escape. Water temperature was maintained at 22-25° C. and changed for every animal. After an acclimation period, rats were timed for inactivity (failure to struggle), activity, swim time and climbing time. The experimenter and scorer were blind to treatment group. Day 1 consisted of a 15 min acclimation trial, and Day 2 (24 h later) consisted of the 5 min test. A time sampling procedure was employed where animals were observed every 5 sec and scored for immobility, swimming, or climbing.
The FST was performed and scored by an experimenter blind to treatment group according to standard protocols and based on a “modified FST” procedure (Slattery and Cryan (2012) Nat Protoc, 7:1009). Briefly, rats were placed in a circular plexiglass container (29.2 cm diameter, 49.5 cm height) filled with water to a depth of 30 cm so rats could not support themselves by touching the bottom of the tank. Water was maintained at 22-25° C. and was changed for every animal. Day 1 (Training) consisted of a 15 min acclimation trial, and Day 2 (Testing, 24 h later) consisted of the 5 min test. A time sampling procedure was employed where animals were observed every 5 seconds for the duration of the test session (60 counts or 5 minutes) and scored for immobility (defined as the failure to struggle), swimming (defined as a circular movement around the tank), or climbing (defined as an upwards escape behavior). […]

Series [6] addresses Human serotonin 5HT2B receptor (Homo sapiens, UniProt P41595). In words: Competitive radioligand binding to 5HT2B receptor membranes. The procedure:
Human serotonin 5HT2B receptor membrane preparations were divided into aliquots. On the day of the assay, membranes were diluted at 1:200 in incubation buffer. […] To each well was added 150 μL membrane preparation, 50 μL test compound, non-specific compound, or buffer alone, as well as 50 μL radioligand. The plate was incubated at 35° C. for 90 minutes with gentle agitation. […] For each concentration of drug, non-specific binding was subtracted from total binding to give specific binding. […] Ki was subsequently calculated using the ChengPrusoff equation.

Series [7] can be described thus: Reserpine-induced fibromyalgia model, vonFrey test. Particulars: 2C-B 10 and 20 mg/kg; 60-min post-injection. It counts as in vivo, rat. The procedure: In this Example, male Sprague Dawley rats are tested in a behavioral model of FMA based on the protocol from Nakagura et al. (2009) Pain 146:26. This model uses three daily doses of reserpine (1 mg/kg, SC) or 0.5% acetic acid vehicle to reduce pain thresholds (i.e., increase pain perception) in the Von Frey Test (vFT, procedure outlined below).
Von Frey Test (vFT) procedure: Increasing pain thresholds in this test are consistent with a reduction in pain perception. Prior to the start of dosing, rats are tested for their baseline mechanical pain threshold. For von Frey measurements, animals are placed into wire bottom cubicles with opaque Plexiglas walls, allowing access to the underside of their paws. Animals are habituated to this environment for at least 30 minutes before the start of the von Frey filament application. Static allodynia is measured using Semmes-Weinstein von Frey filaments (Stoelting, Wood Dale, IL). Mechanical allodynia is tested by touching the plantar surface of the animals' left and right hind paws with von Frey filaments which deliver a calibrated amount of force. Each von Frey filament is presented perpendicularly to the plantar surface for approximately 6 seconds of constant application in either ascending or descending strength in a modified up-and-down method (Chaplan et al. (1994) J Neurosci. Meth. 53:55). Stimulation is presented at intervals of several seconds, allowing for apparent resolution of any behavioral responses to previous stimuli. A positive response is noted if the paw is sharply withdrawn. Flinching immediately upon removal of the hair is also considered a positive response. Ambulation is considered an ambiguous response, and, in such cases, the stimulus is repeated.
VonFrey measurements: Animals were placed into wire bottom cubicles with opaque Plexiglas walls, allowing access to the underside of their paws. […] Static allodynia was measured using Semmes-Weinstein von Frey filaments (Stoelting, Wood Dale, IL). […] The average hindpaw thresholds were determined 60-min post-injection. […]

Series [8] is described as follows: Cisplatin chemotherapy-induced peripheral neuropathy (CIPN) model, VonFrey test. In kind it is in vivo, mouse. The procedure: Methods: Male C57Bl/6 mice aged 12-16 weeks were used. Cisplatin (2.5 mg/kg) or vehicle was administered on days 1-5 and 11-15.
Vehicle, sub-chronic 2C-B (5 mg/kg once daily days 17-23) or acute 2C-B (20 mg/kg once on day 17) was then administered IP (N=16-18/group). VonFrey testing took place on day 17 (30 min post-dose) and days 21 and 24 (pre-dose) to monitor the effects of 2C-B in cisplatin treated animals, compared with animals receiving cisplatin+vehicle or vehicle+vehicle.
For von Frey measurements, animals were placed into wire bottom cubicles with opaque Plexiglas walls, allowing access to the underside of their paws. Animals were habituated to this environment for at least 30 minutes before the start of the von Frey filament application. Static allodynia was measured using Semmes-Weinstein von Frey filaments (Stoelting, Wood Dale, IL). Mechanical allodynia was tested by touching the plantar surface of the animals' right and left hind paws with von Frey filaments which deliver a calibrated amount of force (0.07, 0.16, 0.4, 0.6. 1.0, 2.0, 4.0, 6.0 g). Each von Frey filament was presented perpendicularly to the plantar surface for approximately 6 seconds of constant application in either ascending or descending strength in a modified up-and-down method (Chaplan et al. (1994) J Neurosci. Meth. 53:55). […]

Human serotonin 5HT2B receptor, sequence (P41595 whole entry): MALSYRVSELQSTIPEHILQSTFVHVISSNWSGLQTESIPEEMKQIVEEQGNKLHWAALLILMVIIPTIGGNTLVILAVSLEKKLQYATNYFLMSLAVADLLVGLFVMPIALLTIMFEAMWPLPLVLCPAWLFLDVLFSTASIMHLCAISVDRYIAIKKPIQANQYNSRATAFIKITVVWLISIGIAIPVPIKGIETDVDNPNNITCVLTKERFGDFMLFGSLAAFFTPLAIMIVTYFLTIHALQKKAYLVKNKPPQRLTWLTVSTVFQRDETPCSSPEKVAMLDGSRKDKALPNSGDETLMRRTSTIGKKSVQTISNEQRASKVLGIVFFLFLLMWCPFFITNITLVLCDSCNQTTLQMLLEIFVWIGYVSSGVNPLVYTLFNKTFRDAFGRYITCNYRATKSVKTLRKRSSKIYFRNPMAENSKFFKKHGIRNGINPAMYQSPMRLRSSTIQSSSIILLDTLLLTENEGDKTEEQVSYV

For the compound `CCN(CC)C(=O)[C@@H]1C=C2c3cccc4[nH]cc(c34)C[C@H]2N(C)C1` [LSD, lysergic acid-N,N-diethylamide], the “Reduction in immobility in the FST” value in series [1] is 38%.
As to `CCC(Cc1ccc2c(c1)OCO2)NC` (racemic) [MBDB, N-methyl-1-(1,3-benzodioxol-5-yl)-2-aminobutane], the Extinction acquisition entry in series [2] is listed as “improved extinction acquisition on the first trial of extinction training on day 2”. Also, the “Serotonergic terminals in cortex and hippocampus destroyed” value in series [3] is given as 55-60%. Further, the “Increase in time spent in the center vs. control” value in series [4] is listed as ~40%. In addition, the Immobility result in series [5] (5-30 mg/kg IP, 30 min before test) is on record as “significantly reduced immobility”.
Take `CNCCC(Oc1ccc(C(F)(F)F)cc1)c1ccccc1` (stereo not shown) [fluoxetine, reference compound]: in series [5] (doses as worded), the Swimming behavior result was “significantly increased swimming behavior”.
As to `CC(N)Cc1ccc2c(c1)OCO2` (stereo not shown) [MDA, reference compound], the “Times greater affinity for the 5HT2B receptor compared with methylone” value in series [6] is listed as 37 times.
For `CNCC[C@H](Oc1cccc2ccccc12)c1cccs1` [Duloxetine, reference compound], in series [7], the “Animals with maximal (complete) reversal of reserpine-induced pain sensitivity” value was 44%.
As for `COc1cc(CCN)c(OC)cc1Br` [2C-B, 4-Bromo-2,5-dimethoxyphenethylamine], in series [5] (doses as worded), the Climbing behavior entry was “Climbing was significantly decreased only in the high-dose group” and the Swimming behavior entry is listed as “significant increase in swimming”. Moreover, in series [8] (5 mg/kg once daily days 17-23), the “Effect of repeated doses” value is “sustained beneficial effect”. Further, the “Pain thresholds in cisplatin-treated animals” value in series [8] (single dose 5 or 20 mg/kg IP, day 17) is “Pain thresholds were significantly increased within 30 min of a single dose”. Also, the “Animals with maximal (complete) reversal of reserpine-induced pain sensitivity” value in series [7] is listed as 100%.

Values taken from patent publication US12295937B2, “Psychoactive medicines and their use for treating psychiatric and neurological conditions and disorders” (Transcend Therapeutics, Inc., priority 2021, dated 2025).
